Data on 8 compounds can be found in patent publication US10793525B2, “13-cis-RAMBA retinamides that degrade MNKs for treating cancer” (UNIVERSITY OF MARYLAND, BALTIMORE, priority 2014, dated 2020).

The term melting point denotes the temperature, or range, at which the solid turns liquid.

Data set [1] concerns MDA-MB-468 human breast cancer cells. In words: MTT cell proliferation assay, MDA-MB-468. Particulars: MDA-MB-468 cells, SEM < 10%, read-out: GI50s MDA-MB-468. It is filed as cell-based. The source says: (§1) MCF-7, MDA-MB-231, MDA-MB-468 and SKBR-3 human breast cancer cells and LNCaP, PC-3, and CWR22Rv1 human prostate carcinoma cells (American Type Culture Collection, Manassas, Va., USA) were maintained in RPMI 1640 media (Gibco-Life Technologies, Grand Island, N.Y., USA) supplemented with 10% fetal bovine serum and 1% penicillin/streptomycin. Western blotting was done as mentioned previously,^8, 13b using the following antibodies: AR, Bad, Bax, Bcl-2, eIF4E, Mnk1, Mnk-2, N-cadherin, PARP, peIF4E^ser209 purchased from Cell Signaling Technology, Danvers, Mass., USA. Anti-Mnk2 was purchased from Sigma-Aldrich and normal rabbit IgG, cyclin D1 was from Santa Cruz Biotechnology, CA, USA.
(§2) Cells were plated (2500 cells/well) in 96 well plates and treated with or without specified compounds as described previously.^8a, 12b
(§3) The clinically relevant retinoids, ATRA and 4-HPR and the Mnk inhibitor, cercosporamide were used as comparators in the assays.
For orientation: Tetrazolium dyes change colour on reduction, which living cells bring about.

The test system of data set [2] is SKBR-3 human breast cancer cells. Briefly: MTT cell proliferation assay, SKBR-3. The settings on record: SK-BR-3, SKBR-3 cells, SEM < 10%, read-out: GI50s SKBR-3. It is filed as cell-based.
Description: as §1, §2, §3

The subject of data set [3] is MCF-7 human breast cancer cells. In words: MTT cell proliferation assay, MCF-7. It is filed as cell-based. Particulars: Homo sapiens, MCF7; MCF-7 cells, MTT, SEM < 10%; read-out: GI50s MCF-7.
Description: as §1, §2, §3

The test system of data set [4] is MDA-MB-231 human breast cancer cells. In words: MTT cell proliferation assay, MDA-MB-231. The class given is cell-based. Particulars: MDA-MB-231 cells, SEM < 10%, read-out: GI50s MDA-MB-231.
Description: as §1, §2, §3

Structures are written as SMILES.

On to `CC1=C(/C=C/C(C)=C/C=C/C(C)=C\C(=O)NCc2ccc(F)cc2)C(C)(C)CCC1n1ccnc1` (stereo not shown) [Compound 23, (2Z,4E,6E,8E)-9-(3-(1H-imidazol-1-yl)-2,6,6-trimethylcyclohex-1-en-1-yl)-N-(4-fluorobenzyl)-3,7-dimethylnona-2,4,6,8-tetraenamide], for which the melting point was in the range of 93 to 95 °C. Also, the IC50 in data set [1] amounted to 2.45 µM. Also, the IC50 in data set [2] is 5.5 µM. Besides, the IC50 in data set [3] was 1.93 µM. Also, the IC50 in data set [4] turned out to be 1.41 µM.
In the same order, the values of `CC1=C(/C=C/C(C)=C/C=C/C(C)=C\C(=O)NCCc2ccc(O)cc2)C(C)(C)CC=C1c1cccnc1` [Compound 37, (2Z,4E,6E,8E)-N-(4-hydroxyphenethyl)-3,7-dimethyl-9-(2,6,6-trimethyl-3-(pyridin-3-yl)cyclohexa-1,3-dien-1-yl)nona-2,4,6,8-tetraenamide] are 110 to 112 °C, 50.1 µM, 42.2 µM, 8.75 µM and 26.9 µM.
In the same order, the values of `CC1=C(/C=C/C(C)=C/C=C/C(C)=C\C(=O)NCc2ccc(O)cc2)C(C)(C)CC=C1c1cncnc1` [Compound 39, (2Z,4E,6E,8E)-N-(4-hydroxybenzyl)-3,7-dimethyl-9-(2,6,6-trimethyl-3-(pyrimidin-5-yl)cyclohexa-1,3-dien-1-yl)nona-2,4,6,8-tetraenamide] are 145 to 147 °C, 19.1 µM, 11.5 µM, 4.96 µM and 11.5 µM.
On to `CC1=C(/C=C/C(C)=C/C=C/C(C)=C\C(=O)NCc2ccc(O)cc2)C(C)(C)CC=C1c1cccnc1` [Compound 36, (2Z,4E,6E,8E)-N-(4-hydroxybenzyl)-3,7-dimethyl-9-(2,6,6-trimethyl-3-(pyridin-3-yl)cyclohexa-1,3-dien-1-yl)nona-2,4,6,8-tetraenamide], for which the melting point is 124 to 126 °C.
The compound `CC1=C(/C=C/C(C)=C/C=C/C(C)=C\C(=O)NCCc2ccc(O)cc2)C(C)(C)CCC1n1ccnc1` (stereo not shown) [Compound 25, (2Z,4E,6E,8E)-9-(3-(1H-imidazol-1-yl)-2,6,6-trimethylcyclohex-1-en-1-yl)-N-(4-hydroxyphenethyl)-3,7-dimethylnona-2,4,6,8-tetraenamide] came in with a melting point of 126 to 128 °C. The IC50 in data set [1] turned out to be 13.5 µM. Moreover, the IC50 in data set [2] came to 1.41 µM. Further, the IC50 in data set [3] is 1.9 µM. For the same compound, the IC50 in data set [4] turned out to be 2.88 µM.
Regarding `CC1=C(/C=C/C(C)=C/C=C/C(C)=C\C(=O)Nc2ccccc2)C(C)(C)CC=C1c1cccnc1` [Compound 35, (2Z,4E,6E,8E)-3,7-dimethyl-N-phenyl-9-(2,6,6-trimethyl-3-(pyridin-3-yl)cyclohexa-1,3-dien-1-yl)nona-2,4,6,8-tetraenamide], the IC50 worked out at 39.8 µM in data set [1], 47.4 µM in data set [2], 8.32 µM in data set [3] and 25.1 µM in data set [4].
Take `CC1=C(/C=C/C(C)=C/C=C/C(C)=C\C(=O)NCCc2ccc(O)cc2)C(C)(C)CC=C1c1cncnc1` [Compound 40, (2Z,4E,6E,8E)-N-(4-hydroxyphenethyl)-3,7-dimethyl-9-(2,6,6-trimethyl-3-(pyrimidin-5-yl)cyclohexa-1,3-dien-1-yl)nona-2,4,6,8-tetraenamide]: the melting point was 115 to 117 °C. Also, the IC50 in data set [1] is 23.4 µM. For the same compound, the IC50 in data set [2] is 24 µM. The IC50 in data set [3] is 2.96 µM. In addition, in data set [4], the IC50 was determined as 14.5 µM.
In the case of `CC1=C(/C=C/C(C)=C/C=C/C(C)=C\C(=O)NCc2cccc(F)c2)C(C)(C)CCC1n1ccnc1` (stereo not shown) [Compound 24, (2Z,4E,6E,8E)-9-(3-(1H-imidazol-1-yl)-2,6,6-trimethylcyclohex-1-en-1-yl)-N-(3-fluorobenzyl)-3,7-dimethylnona-2,4,6,8-tetraenamide], the IC50 in data set [1] was 2.45 µM; in data set [2] it was 5.5 µM; in data set [3] it was 1.81 µM; in data set [4] it was 1.65 µM.
